We go through five molecules from paper PMC7605239 (Cell, 2020).

Where two headings read alike, the source gives them in different places.

In assay [1] the target is T1, CR518 (chemotactile receptor 518) (Octopus bimaculoides, UniProt A0A0L8FVQ9).
T1 sequence (A0A0L8FVQ9 21-399): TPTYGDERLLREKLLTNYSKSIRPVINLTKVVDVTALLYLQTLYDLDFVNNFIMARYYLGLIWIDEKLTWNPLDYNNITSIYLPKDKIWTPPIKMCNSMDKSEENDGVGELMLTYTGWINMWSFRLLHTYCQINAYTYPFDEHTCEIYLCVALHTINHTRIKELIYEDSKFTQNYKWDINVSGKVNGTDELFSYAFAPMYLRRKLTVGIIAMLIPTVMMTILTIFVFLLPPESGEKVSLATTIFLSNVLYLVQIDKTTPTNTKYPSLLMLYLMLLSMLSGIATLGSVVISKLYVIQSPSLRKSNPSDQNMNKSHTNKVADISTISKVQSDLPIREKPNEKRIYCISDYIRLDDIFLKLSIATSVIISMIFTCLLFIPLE
The assay can be described thus: whole-cell patch clamp dose-response. The format is cell-based. Background: The patch-clamp technique gives a direct electrical read-out from membranes.

For assay [2], the target named is T1, CR518 (chemotactile receptor 518). The assay is described as follows: whole-cell patch clamp dose-response. It is filed as cell-based. The source holds these as a separate data set.
Assay [3] has as its system CR840 (chemotactile receptor 840). The assay is described as follows: whole-cell patch clamp dose-response. It is filed as cell-based, Octopus bimaculoides.
The target of assay [4] is T1, CR518 (chemotactile receptor 518). The assay is described as follows: whole-cell patch clamp screen. The format is cell-based.

For `C=C1CCC[C@]2(C)Cc3occ(C)c3C[C@@H]12` [atractylon], the concentration for a half-maximal effect (EC50) in assay [1] came out at 29.4 µM. This lies in the double-digit micromolar range.

In assay [2], `Cc1ccc(C(C)C)cc1O` [carvacrol] had a half-maximal effective concentration (EC50) of 204 µM.

For `CCN(CC)CCCC(C)Nc1ccnc2cc(Cl)ccc12` (stereo not drawn) [chloroquine], the results for the EC50 in assay [3] and in assay [1] were 10.3 µM and 92.3 µM, respectively.

For `C=C(C)[C@@H]1CCC2=CC(=O)C[C@@H](C)[C@]2(C)C1` [nootkatone], in assay [2], the 50% effective concentration (EC50) is 24.7 µM.

With `CC1(C)CCC[C@]2(C)[C@@H](C=O)C(C=O)=CC[C@@H]12` [polygodial], in assay [4], the “whole-cell patch clamp screen (1 mM)” value is “CR518 was potently activated by terpenoids, including the physiologically-relevant sesquiterpene polygodial and furanosesquiterpene atractylon”.

Broadly, the EC50 is the concentration giving half of the maximal effect. A lower EC50 goes with an effect from little substance.
